The source of these data is paper PMC9527238, “Glutamate and GABAA receptor crosstalk mediates homeostatic regulation of neuronal excitation in the mammalian brain” (Signal Transduction and Targeted Therapy, 2022).

The target of experiment [1] is T1, rat α1β2 GABAARs (Rattus norvegicus, UniProt P62813+P63138).
T1 construct: expressed in transfected cells; host or cells: HEK293
The experiment is described as follows: Whole-cell patch clamp of GABA-evoked currents, HEK293 cells expressing α1β2. The format is cell-based. The source says:
Co-expression of the α and β subunits is the minimum requirement for a functional recombinant GABAAR expressed in a heterologous cell line such as HEK293, while co-expression of the α, β and γ subunits is required for the recombinant receptor with a full pharmacological profile.[2] We therefore transiently expressed either rat α1β2 or α1β2γ2 subunits in HEK293 cells.
HEK293 cells were transiently transfected with rat GABAAR α1/β2 (a–e) or α1/β2/γ2 (f) subunits. Whole-cell voltage-clamp recordings were performed with a chloride-based intracellular recording solution at a holding membrane potential of −60 mV.
(§1) HEK293 cells were cultured in DMEM (Invitrogen) supplemented with 10% fetal bovine serum. Cells were grown to 40–60% confluence and transiently transfected using Lipofectamine 2000 (Invitrogen) with 1:0.5–1 plasmid/lipid ratio. Cells were transfected with a pBK-CMV expression vector containing a rat recombinant GABAAR α, β or γ subunits. Co-transections were done with a plasmid ratio of 1:1 αβ and 2:2:1 for αβγ subunit combinations, respectively. pcDNA3.1-GFP was also co-transfected along with GABAAR subunits as a transfected marker in order to facilitate the visualization of the transfected cells during electrophysiological experiments. Cells were re-plated on glass coverslips after 15–20 h transfection and were cultured for an additional 15–24 h before whole-cell patch-clamp recordings.
(§2) Whole-cell patch-clamp recordings were performed under voltage-clamp mode using an Axopatch 200B or 1D patch-clamp amplifier (Molecular Devices) on HEK293 cells and cultured neurons. Whole-cell currents were recorded at a holding potential of −60 mV, and signals were filtered at 2 kHz, digitized at 10 kHz (Digidata 1322 A). Recording pipettes (3–5 MΩ) were filled with the intracellular solution that contained (mM): CsCl 140, HEPES 10, Mg-ATP 4, QX-314 5, pH 7.20; osmolarity, 290–295 mOsm. BAPTA (10 mM) was added in the intracellular solution. The coverslips were continuously superfused with the extracellular solution containing (mM): NaCl 140, KCl 5.4, HEPES 10, MgCl2 1.0, CaCl2 1.3, glucose 20, pH 7.4; osmolarity, 305–315 mOsm. […] Dose–response curves were created by fitting data to Hill equation: I = Imax/[1 + (EC50/[A])^n], where I is the current, Imax is the maximum current, [A] is a given concentration of agonist, n is the Hill coefficient. […] All experiments were performed at room temperature.
A general note: Patch clamp records ionic current or voltage across a cell membrane.

Experiment [2] deals with GABAAR-mediated currents, WT mice. Nature of the experiment: Whole-cell recording of CA1 neurons, hippocampal slices of WT mice. The format is cell-based, mouse. Particulars: L-Glu 50 µM. Here is the method: We next determined if glutamate-mediated allosteric potentiation of GABAAR function was impaired in hippocampal slices acutely prepared from postnatal 90-day-old KI mice. Whole-cell recordings of CA1 neurons were performed under voltage clamp configuration at a holding potential of −60 mV.
Mice were deeply anesthetized with urethane (1.5 g/kg, i.p.) and transcardially perfused with ice cold sucrose hypertonic cutting solution (in mM: KCl 3.0, NaH2PO4.H2O 1.25, NaHCO3 26, Na-vitamin C 0.4, Na-lactate 2.0, Na-pyruvate 2.0, D-glucose 10.0, Sucrose 220, CaCl2 0.1, MgCl2 2, MgSO4 4.0, pH 7.4, 290–300 mOsm/l) prior to decapitation as described previously.[47] After decapitation, the brain was rapidly removed and transferred to the ice cold cutting solution bubbled with 95% O2 and 5% CO2, and acute coronal brain slices (400 μm) were prepared on a Leica vibratome (VT1200S, Germany). All brain slices were placed into a standard artificial cerebral spinal fluid (ACSF) (in mM: NaCl 124, KCl 2.8, NaH2PO4.H2O 1.25, NaHCO3 26, Na-vitamin C 0.4, Na-lactate 2.0, Na-pyruvate 2.0, D-glucose 10.0, CaCl2 2, MgSO4 1.2, pH 7.4, 290–300 mOsm/l) incubated at 35 °C for 2 h prior to recording. Field excitatory postsynaptic potential (fEPSP) recordings were performed under current-clamp mode using HEKA EPC10 patch-clamp amplifier (HEKA Electronic, Lambrecht/Pfalz, Germany). […]

Experiment [3] has as its target T2, α1β2γ2E168K GABAAR (Rattus norvegicus, UniProt P18508+P62813+P63138, E206K).
T2 construct: expressed in transfected cells; host or cells: HEK293
The experiment is described as follows: Patch clamp, HEK293, mutant GABAAR. It is filed as cell-based. On the procedure: However, for the GABAAR containing only α and β subunits, there are two α^+/β^− interfaces, with potentially two glutamate-binding pockets (Fig. 5a; Right).
as §1
(§3) The site-directed mutagenesis of α, β or γ subunits were performed by using the QuikChange method (Stratagene). […] Wild-type or mutant subunits were transfected in HEK293 cells and subjected to electrophysiology examinations.
as §2

Experiment [4] addresses T3, αE137GβE181G GABAAR (Rattus norvegicus, UniProt P62813+P63138, E164G/E206G).
T3 construct: expressed in transfected cells; host or cells: HEK293
The experiment is described as follows: Patch clamp, HEK293, double mutant α1β2 GABAAR. The format is cell-based. Particulars: HEK293, read-out: Glutamate potentiation of GABA currents, % of control, normalized to wild-type α1β2.
Source text: (§4) The subunits are color-coded individually. The boxed regions are further enlarged in the middle panels, highlighting the predicted glutamate binding pocket in the α+ and β− interface, just below the loop C. […] Relative potentiation was obtained by normalizing potentiation observed in the mutated receptor to that in the respective wild-type receptor.
(§5) To further investigate the characteristics of these four residues, double amino acid substitutions were introduced at residue pairs that are located at different (α1β2) subunits (Fig. 3f and Supplementary Fig. S6b).
as §1, §3
(§6) Whole-cell patch-clamp recordings were performed under voltage-clamp mode using an Axopatch 200B or 1D patch-clamp amplifier (Molecular Devices) on HEK293 cells and cultured neurons. Whole-cell currents were recorded at a holding potential of −60 mV, and signals were filtered at 2 kHz, digitized at 10 kHz (Digidata 1322 A). Recording pipettes (3–5 MΩ) were filled with the intracellular solution that contained (mM): CsCl 140, HEPES 10, Mg-ATP 4, QX-314 5, pH 7.20; osmolarity, 290–295 mOsm. BAPTA (10 mM) was added in the intracellular solution.

The target in experiment [5] is T4, αK104D,E137Gβ GABAAR (Rattus norvegicus, UniProt P62813+P63138, E164G/K131D).
T4 construct: expressed in transfected cells; host or cells: HEK293
T4 sequence (P62813 28-455 K131D/E164G): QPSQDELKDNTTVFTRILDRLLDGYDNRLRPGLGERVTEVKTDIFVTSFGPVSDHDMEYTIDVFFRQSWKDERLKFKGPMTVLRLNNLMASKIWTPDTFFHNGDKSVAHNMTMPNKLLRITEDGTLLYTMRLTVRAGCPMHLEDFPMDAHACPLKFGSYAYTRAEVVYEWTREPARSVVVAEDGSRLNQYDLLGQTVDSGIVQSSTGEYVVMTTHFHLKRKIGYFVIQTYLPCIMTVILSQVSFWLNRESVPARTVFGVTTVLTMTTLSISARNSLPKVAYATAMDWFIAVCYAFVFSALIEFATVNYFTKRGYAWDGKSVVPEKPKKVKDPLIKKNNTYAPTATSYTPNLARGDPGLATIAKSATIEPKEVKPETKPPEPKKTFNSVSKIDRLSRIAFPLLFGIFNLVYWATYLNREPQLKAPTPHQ
T4 sequence (P63138 25-474 limits assumed): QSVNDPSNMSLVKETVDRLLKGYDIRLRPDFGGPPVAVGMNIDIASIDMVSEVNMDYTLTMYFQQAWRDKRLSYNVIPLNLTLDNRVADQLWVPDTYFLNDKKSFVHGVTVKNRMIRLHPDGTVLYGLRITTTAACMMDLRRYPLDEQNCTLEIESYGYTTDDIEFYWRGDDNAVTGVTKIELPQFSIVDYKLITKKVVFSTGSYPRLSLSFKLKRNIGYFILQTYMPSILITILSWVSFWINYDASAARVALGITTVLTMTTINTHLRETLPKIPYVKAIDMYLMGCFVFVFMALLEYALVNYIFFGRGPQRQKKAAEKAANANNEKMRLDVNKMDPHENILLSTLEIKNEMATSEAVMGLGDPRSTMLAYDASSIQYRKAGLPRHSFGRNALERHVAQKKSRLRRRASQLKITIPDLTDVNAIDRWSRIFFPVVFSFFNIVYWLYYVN
The experiment is described as follows: Patch clamp, HEK293, double mutant α1β2 GABAAR. It is filed as cell-based. Particulars: HEK293, read-out: Glutamate potentiation of GABA currents, % of control, normalized to wild-type α1β2.
Source text: as §4, §5, §1, §3, §6

For experiment [6], the target named is T5, αK104βE181G GABAAR (α1 K104D and β2 E181G) (Rattus norvegicus, UniProt P62813+P63138, E206G/K131D).
T5 construct: expressed in transfected cells; host or cells: HEK293
T5 sequence (P62813 28-455 K131D): as the sequence (P62813 28-455 K131D/E164G) above, with G137E counted along it
T5 sequence (P63138 26-474 E206G): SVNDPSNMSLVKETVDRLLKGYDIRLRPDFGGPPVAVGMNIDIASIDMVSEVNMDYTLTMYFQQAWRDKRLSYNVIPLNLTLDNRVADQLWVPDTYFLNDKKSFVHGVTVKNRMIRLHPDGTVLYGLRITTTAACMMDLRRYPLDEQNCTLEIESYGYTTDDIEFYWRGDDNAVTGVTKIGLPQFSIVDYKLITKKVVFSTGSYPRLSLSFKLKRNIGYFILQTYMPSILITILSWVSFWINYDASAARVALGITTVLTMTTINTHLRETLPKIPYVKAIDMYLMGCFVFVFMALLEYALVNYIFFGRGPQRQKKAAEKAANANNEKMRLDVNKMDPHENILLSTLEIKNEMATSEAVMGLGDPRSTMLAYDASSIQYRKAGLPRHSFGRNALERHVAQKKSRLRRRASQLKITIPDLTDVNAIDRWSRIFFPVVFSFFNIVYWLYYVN
The experiment is described as follows: Patch clamp, HEK293, double mutant α1β2 GABAAR. It is filed as cell-based. Particulars: HEK293, read-out: Glutamate potentiation of GABA currents, % of control, normalized to wild-type α1β2.
Source text: as §4, §5, §1, §3, §6

SMILES strings stand for the structures.

T1 sequence (P62813 28-455): as the sequence (P62813 28-455 K131D/E164G) above, with D104K, G137E counted along it
T1 sequence (P63138 26-474): as the sequence (P63138 26-474 E206G) above, with G181E counted along it
T2 sequence (P62813 28-455): as the sequence (P62813 28-455 K131D/E164G) above, with D104K, G137E counted along it
T2 sequence (P63138 26-474, stated change not applied): as the sequence (P63138 26-474 E206G) above, with G181E counted along it
T2 sequence (P18508 39-466 E206K): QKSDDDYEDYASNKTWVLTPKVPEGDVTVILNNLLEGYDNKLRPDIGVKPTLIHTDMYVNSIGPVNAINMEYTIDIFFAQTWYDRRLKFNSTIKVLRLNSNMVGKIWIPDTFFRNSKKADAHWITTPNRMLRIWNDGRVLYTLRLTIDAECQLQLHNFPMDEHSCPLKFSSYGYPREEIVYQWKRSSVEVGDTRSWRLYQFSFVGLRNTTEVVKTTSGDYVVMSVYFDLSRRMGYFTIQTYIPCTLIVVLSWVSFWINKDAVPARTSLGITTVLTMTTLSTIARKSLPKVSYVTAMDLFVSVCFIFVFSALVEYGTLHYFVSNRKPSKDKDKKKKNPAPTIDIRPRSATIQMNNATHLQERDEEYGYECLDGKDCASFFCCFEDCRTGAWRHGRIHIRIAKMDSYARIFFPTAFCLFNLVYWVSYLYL
T3 sequence (P62813 28-455 E164G): as the sequence (P62813 28-455 K131D/E164G) above, with D104K counted along it
T3 sequence (P63138 26-474 E206G): as the sequence (P63138 26-474 E206G) above

As usually defined, the EC50 is the concentration that produces a half-maximal response. As for `N[C@@H](CCC(=O)O)C(=O)O` [glutamate, Glutamate], in experiment [1], the “amplitude of GABA-induced currents with glutamate co-applied” value stood at 331.2 ± 44.5%. The “current produced by glutamate on its own” value in experiment [1] was “no noticeable current”. Moreover, the “lowest effective dose (20% potentiation)” value in experiment [1] was “around 30 μM”. In addition, the “potentiation effect at saturated GABA concentration” value in experiment [1] was “almost no potentiation effect”. In addition, the EC50 in experiment [1] (potentiation of 1 μM GABA-induced currents, read-out: EC50 of glutamate potentiation) was about 180 µM. In addition, the “GABAAR-mediated IPSC currents relative to baseline” value in experiment [2] was found to be 153.0 ± 9.5%. The results for the “Glu-induced potentiation, % of wild-type α1β2γ2” value in experiment [3] (Glu 100 μM) and in experiment [3] (Glu 1 mM) were 169.4 ± 32.5% and 225.7 ± 51.9%, respectively. In addition, the activity at 100 µM in experiment [4] (glutamate 100 μM) was 9.2 ± 3%; in experiment [5] (glutamate 100 μM) it was 17.3 ± 12.9%; in experiment [6] (glutamate 100 μM), 6.6%. In addition, the activity at 1000 µM in experiment [4] (glutamate 1 mM) came out at 16.2 ± 1.3%; in experiment [5] (glutamate 1 mM) it was 45.9 ± 20.9%; in experiment [6] (glutamate 1 mM) it was 27.4 ± 12.6%.
